In US9376391B2, “Difluoromethyl-nicotinic-tetrahydronaphthyl carboxamides as fungicides” (BAYER CROPSCIENCE AKTIENGESELLSCHAFT, priority 2012, dated 2016):

Columns and labels:
[1] = log P by HPLC on reversed phase columns (EEC directive 79/831 Annex V.A8); assay type: physicochemical; details: Table 1, formula (I); HPLC/LC-MS at pH 2.7, 0.1% formic acid in water / acetonitrile, gradient 10% to 95%
[2] = test system: Alternaria brassicae; experiment: In vivo preventive test on Alternaria brassicae (leaf spot on radish); details: spray, graded 6 days after contamination vs control plants
Method in brief: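 Radish cv. Pernod Clair at cotyledon stage (grown 17 °C) sprayed with compound in acetone/tween/DMSO/water, then inoculated 24 h later with A. brassicae spores (50 000 spores per ml). Incubation 20 °C, 100% RH; % efficacy graded 6 days post-inoculation versus solvent-treated controls.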

[3] = test system: Pyrenophora teres; experiment: In vivo preventive test on Pyrenophora teres (net blotch on barley); details: barley, spray, graded 14 days after contamination vs control plants
Procedure: In Vivo Preventive Test on Pyrenophora teres (Net Blotch on Barley)
The active ingredients tested are prepared by homogenization in a mixture of acetone/tween/DMSO, and then diluted with water to obtain the desired active material concentration.
Barley plants (“Plaisant” variety), sown in starter cups on a 50/50 peat soil-pozzolana substrate and grown at 22° C., are treated at the 1-leaf stage (10 cm height) by spraying with the active ingredient prepared as described above. Plants, used as controls, are treated with the mixture of acetone/tween/DMSO/water not containing the active material.
After 24 hours, the plants are contaminated by spraying the leaves with an aqueous suspension of Pyrenophora teres spores (12 000 spores per ml). The spores are collected from a 12-day-old culture. The contaminated barley plants are incubated for 48 hours at 20° C. and at 100% relative humidity, and then for 12 days at 20° C. at 70-80% relative humidity.
Grading (% of efficacy) is carried out 14 days after the contamination, in comparison with the control plants. plants.

[4] = test system: Puccinia recondita; experiment: In vivo preventive test on Puccinia recondita (brown rust on wheat); details: wheat, spray, graded 12 days after contamination vs control plants
Method in brief: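 Wheat seedlings ("Scipion") sprayed with compound at the 1-leaf stage, inoculated 24 h later with Puccinia recondita spores (100 000 spores per ml). Incubated 24 h at 20° C and 100% RH, then 10 days at 20° C and 70-80% RH. Efficacy (%) versus solvent-treated controls graded 12 days after contamination.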

[5] = test system: Sphaerotheca fuliginea; experiment: In vivo preventive test on Sphaerotheca fuliginea (powdery mildew on cucurbits); details: preventive spray, gherkin plants, grading 12 days after contamination
Method in brief: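 Gherkin plants at Z11 cotyledon stage were sprayed with compound in acetone/tween/DMSO/water. After 24 h they were inoculated with S. fuliginea spores (100 000 spores per ml) and incubated at about 20° C and 70-80% RH. Percent efficacy versus solvent-treated controls was scored 12 days post-inoculation.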

[6] = test system: Uromyces appendiculatus; experiment: In vivo preventive test on Uromyces appendiculatus (bean rust); details: preventive spray, bean plants, grading 11 days after contamination
Method in brief: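 'Saxa' bean plants at the 2-leaf stage were sprayed with compound and inoculated 24 h later with U. appendiculatus spores (150 000 spores per ml). Plants were incubated 24 h at 20 °C and 100% RH, then 10 days at 20 °C and 70–80% RH. Percent efficacy versus solvent-treated controls was graded 11 days post-inoculation.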

[7] = test system: Phakopsora pachyrhizi; experiment: Phakopsora test (soybeans)/preventive; assay type: in vivo; details: evaluated 7 days after inoculation
Procedure: Phakopsora Test (Soybeans)/Preventive
To produce a suitable preparation of active compound, 1 part by weight of active compound is mixed with the stated amounts of solvent and emulsifier, and the concentrate is diluted with water to the desired concentration.
To test for preventive activity, young plants are sprayed with the preparation of active compound at the stated rate of application. After the spray coating has dried on, the plants are inoculated with an aqueous spore suspension of the causal agent of soybean rust (Phakopsora pachyrhizi) and stay for 24 h without light in an incubation cabinet at approximately 24° C. and a relative atmospheric humidity of 95%.
The plants remain in the incubation cabinet at approximately 24° C. and a relative atmospheric humidity of approximately 80% and a day/night interval of 12 h.
The test is evaluated 7 days after the inoculation. 0% means an efficacy which corresponds to that of the untreated control, while an efficacy of 100% means that no disease is observed.

[8] = test system: Septoria tritici; experiment: In vivo preventive test on Septoria tritici (leaf spot on wheat); details: 500 ppm, preventive spray, wheat plants, grading 24 days after contamination
Method in brief: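 Wheat cv. Scipion sprayed preventively at 1-leaf stage; inoculated 24 h later with Septoria tritici spores (500 000 spores per ml). Incubation 72 h at 18 °C, 100% RH, then 21 days at 90% RH; % efficacy graded 24 days after contamination against solvent-treated controls.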

logP^[a] [1] | Structure (SMILES) | Eff. % ([2]; dose 500 ppm) [%] | Eff. % ([3]; dose 500 ppm) [%] | Eff. % ([4]; dose 500 ppm) [%] | Eff. % ([5]; 500 ppm) [%] | Eff. % ([6]; 500 ppm) [%] | Eff. % ([7]; 10 ppm of active ingredient) [%] | Eff. % [8] [%] | Eff. % ([7]; 100 ppm of active ingredient) [%] | Eff. % ([2]; dose 100 ppm) [%] | Eff. % ([3]; dose 100 ppm) [%] | Eff. % ([4]; dose 100 ppm) [%] | Eff. % ([5]; 100 ppm) [%] | Eff. % ([6]; 100 ppm) [%]
4.15^[a] | CC(C)CC1CC(C)c2c(NC(=O)c3cccnc3C(F)F)cccc21 (stereo not shown) [Example 57] | 97 | 97 | 98 | 98 | 100 | 93 |  |  |  |  |  |  | 
3.23^[a] | CCC1OC(CC)(CC)c2cccc(NC(=O)c3cccnc3C(F)F)c21 (racemic) [Example 71] |  |  |  |  |  | 94 |  |  | 88 | 92 | 98 | 100 | 100

The next lines start with the compound.

Structure (SMILES) | logP^[a] [1] | Eff. % ([2]; dose 500 ppm) [%] | Eff. % ([3]; dose 500 ppm) [%] | Eff. % ([4]; dose 500 ppm) [%] | Eff. % ([5]; 500 ppm) [%] | Eff. % ([6]; 500 ppm) [%] | Eff. % ([7]; 10 ppm of active ingredient) [%] | Eff. % [8] [%] | Eff. % ([7]; 100 ppm of active ingredient) [%] | Eff. % ([2]; dose 100 ppm) [%] | Eff. % ([3]; dose 100 ppm) [%] | Eff. % ([4]; dose 100 ppm) [%] | Eff. % ([5]; 100 ppm) [%] | Eff. % ([6]; 100 ppm) [%]
CC1CC(C)(C)c2cccc(NC(=O)c3cccnc3C(F)F)c21 (stereo not shown) [Example 13] | 3.25^[a] | 93 | 100 | 100 | 100 | 100 |  | 83 | 99 |  |  |  |  | 
CC1CC(C)(C)c2cccc(NC(=S)c3cccnc3C(F)F)c21 (racemic) [Example 9] | 3.74^[a] |  | 86 | 100 | 100 | 100 |  | 98 | 99 |  |  |  |  | 
CC1CC(C(C)C)c2cccc(NC(=O)c3cccnc3C(F)F)c21 (stereo not shown) [Example 3] | 3.65^[a] | 86 | 83 | 97 | 95 | 100 |  | 90 | 100 |  |  |  |  | 
